Data from patent US20180071284A1, “PREVENTING OR TREATING VIRAL INFECTION BY INHIBITION OF THE HISTONE METHYLTRANSFERASE EZH1 OR EZH2” (The United States of America, as represented by the …, priority 2015, published 2018).
Entries after “also recorded” stand apart in the source; their conditions may differ.

Tests used:
HSV-1 [1] = assay: HSV-1 cellular and nuclear entry (viral DNA in total and nuclear fractions of HFF cells); type: cell-based, herpes simplex virus 1 (HSV-1); conditions: compound 1 35 μM, compound 4 30 μM, 5-hrs pretreatment, HSV-1 2.0 PFU per cell 1.5-hrs
Protocol: HFF cells were treated with the EZH1/2 catalytic inhibitor compound 1 (35 μM), compound 4 (30 μM), or DMSO (vehicle) for 5-hrs. The HFF cells were then infected with HSV-1 (2.0 PFU per cell) for 1.5-hrs in the presence of the inhibitors or DMSO (vehicle). The levels of HSV viral DNA isolated from total and nuclear cellular fractions are expressed as ratios relative to DMSO (vehicle).

HSV-1 [2] = assay: Spread of HSV infection in HFF cells (UL29 staining); type: cell-based, herpes simplex virus 1 (HSV-1); conditions: HSV-1 MOI 0.01 for 8.5-hrs, then treated for 12.5-hrs (30 μM)
Protocol: HFF cells were mock or infected with HSV-1 (MOI 0.01) for 8.5-hrs to allow one round of the viral replication program. The HFF cells were then treated with EZH1/2 inhibitor (compound 1 or compound 4 at 30 μM), viral DNA polymerase inhibitor (ACV at 100 μM), or JMJD3 inhibitor (ML324 at 50 μM) for an additional 12.5-hrs. Cells were paraformaldehyde fixed, permeabilized, and stained for the viral E gene UL29 and actin. The viral E protein UL29 was used as a marker for the spread of viral infection.
HFF cells were mock or infected with HSV-1 (MOI 0.01) for 8.5-hrs to allow one round of the viral replication program. HFF cells were then treated with EZH1/2 (compound 1, compound 4), viral DNA polymerase (ACV), or JMJD3 (ML324) inhibitors for additional 12.5-hrs. Cells were paraformaldehyde fixed, permeabilized, and stained for the viral E gene UL29 and actin (Phalloidin). The viral E protein UL29 was used as a marker for the spread of viral infection.

HSV-1 [3] = assay: HSV-1 viral IE mRNA levels in infected Vero (IFN-β null, IRF3 deficient) cells; type: cell-based, herpes simplex virus 1 (HSV-1); conditions: 5-hrs pretreatment, HSV-1 2.0 PFU per cell
Protocol: HFF (wild-type) and Vero (IFN-β null, IRF3 deficient) cells were treated with the indicated concentration of EZH1/2 catalytic inhibitor (compound 1 or 4) or DMSO (vehicle) for 5-hrs. HFF and Vero cells were then infected with HSV-1 (2.0 PFU per cell) for 1.5-hrs in the presence of inhibitor or DMSO. The levels of HSV viral IE (ICP0, ICP4, ICP22, and ICP27) and cellular control (SP1 and TBP) mRNAs are expressed relative to cells treated with DMSO (vehicle).

IFN-α, TNF-α, IL-8 mRNAs = assay: Cellular innate interferon signaling mRNAs in mock or HSV-1 infected HFF cells; type: cell-based, human; conditions: 30 μM, 5-hrs
Protocol: HFF cells were treated with EZH1/2 catalytic inhibitor compound 4 (30 μM) or DMSO for 5-hrs. HFF cells were then mock or infected with HSV-1 (2.0 PFU per cell) for 1.5-hrs in the presence of inhibitor or DMSO. The levels of HSV viral IE (ICP4 and ICP27), control (SP1), and cellular innate interferon signaling (IFN-α, TNF-α, IL-8) mRNAs are expressed as absolute levels (absolute copies).

HSV-1 [4] = assay: UL29+ single neurons and neuron clusters in explanted trigeminal ganglia; type: cell-based, herpes simplex virus 1 (HSV-1); conditions: explant 48-hrs; compound 1 35 μM, compound 4 30 μM, ACV 100 μM, ML324 50 μM
Excerpt: Trigeminal ganglia were fixed in paraformaldehyde and tissue sections were […] with anti-UL29 and DAPI. The HSV E gene UL29 (DNA single strand binding replication protein) was used a marker for viral reactivation. Tissue sections were scored for UL29+ cell clusters (clusters indicate viral spread from the primary neuron to surrounding cells) and for individual neurons representing the primary reactivation event (single) (FIGS. 18 and 19).
Trigeminal ganglia were fixed in paraformaldehyde and tissue sections were costained with anti-UL29 and DAPI. The HSV E gene UL29 (DNA single strand binding replication protein) was used a marker for viral reactivation. Tissue sections were scored for UL29+ cell clusters (clusters indicate viral spread from the primary neuron to surrounding cells) and for individual neurons representing the primary reactivation event (single) (FIG. 25).

[5] = test system: cytokines, chemokines, and adhesion proteins involved in innate signaling; assay: RNA-seq analysis of explanted trigeminal ganglia from HSV-1 latently infected mice; type: cell-based; conditions: 30 μM, 12 hrs
Protocol: Trigeminal ganglia from HSV-1 latently infected mice were explanted in media with control DMSO (vehicle) or in media with compound 4 (30 μM) for 12 hrs. Total cellular RNA was isolated and RNA-seq analysis identified the induction of cytokines, chemokines, and adhesion proteins involved in innate signaling and recruitment of immune effector cells. The results are in Table 1 below, where changes in gene expression are expressed as ratios of compound 4 relative to vehicle.

neutrophil (Ly6G) = assay: Neutrophil recruitment to the site of HSV infection in mouse eyes; type: in vivo, Balb/c mice; conditions: topical to the eyes, 30 μM twice daily, day 5
Protocol: The eyes of Balb/c mice were scarified and mock or infected with 2×10^5 pfu of HSV-1 (strain F) per eye. Beginning on day 0.5, the eyes of mice were treated either with EZH1/2 inhibitor (compound 4: 30 μM), acyclovir (ACV: 30 μM), or vehicle control twice daily. On day 5, the eyes were fixed in paraformaldehyde and tissue sections were co-stained with anti-HSV-1, anti-Ly6G (neutrophil), and DAPI.

Zika virus (ZIKV) = assay: Zika virus infection of HFF cells (focus forming units, percent infected cells); type: cell-based
Protocol: FIG. 32 presents line graphs that show the number and size of Focus Forming Units (FFU) after HFF cells were treated with the indicated concentrations of compound 4 for 5 h and infected with ZIKV for 40 h, in accordance with embodiments of the invention.
HFF cells were treated with compound 4 and infected with Zika virus (ZIKV), a member of the flavivirus family.
To determine if pretreatment was required to suppress ZIKV infection, cells were pretreated with compound 4 or were treated 3 h post ZIKV adsorption. While pretreatment was modestly more efficient at suppression of infection at lower compound 4 concentrations, it was not essential to effect significant suppression (FIG. 34).

[6] = HFF cells treated 5 h, infected with ZIKV for 40 h, dose-dependent

SMILES: CC[C@H](C)n1cc(C)c2c(C(=O)NCc3c(C)cc(C)[nH]c3=O)cc(-c3ccc(N4CCNCC4)nc3)cc21 [compound 4, GSK126]
- HSV-1 viral entry (total and nuclear) (HSV-1 [1]): no impact
- spread of HSV infection to adjacent cells (UL29 marker) (HSV-1 [2]): block the spread of HSV to adjacent cells; also recorded: block the spread of HSV infection
- antiviral activity (HSV IE mRNA) in Vero cells as compared to HFF (wild-type) cells (HSV-1 [3]): lack of antiviral activity
- expression of innate antiviral signaling molecules IFN-α, TNF-α, and IL-8 (IFN-α, TNF-α, IL-8 mRNAs): induces the expression
- primary reactivation (UL29+ single neurons) (HSV-1 [4]): reduced
- secondary spread of HSV (UL29+ neuron clusters) (HSV-1 [4]): reduced
- genes induced >2 fold that are co-regulated by IFN (Interferome), ganglia explants [5]: 33 genes
- share of genes induced >2 fold that are co-regulated by IFN (Interferome), ganglia explants [5]: 69%
- Fold Change (Cmpd. 4 relative to vehicle) ([5]; Gene CCL2 (Chemokines)): 2.23
- Fold Change (Cmpd. 4 relative to vehicle) ([5]; Gene CXCL1 (Chemokines)): 6.30
- Fold Change (Cmpd. 4 relative to vehicle) ([5]; Gene CXCL2 (Chemokines)): 5.11
- Fold Change (Cmpd. 4 relative to vehicle) ([5]; Gene CXCL3 (Chemokines)): 2.68
- Fold Change (Cmpd. 4 relative to vehicle) ([5]; Gene CXCL5 (Chemokines)): 3.78
- Fold Change (Cmpd. 4 relative to vehicle) ([5]; Gene G-CSF (Cytokines)): 6.16
- Fold Change (Cmpd. 4 relative to vehicle) ([5]; Gene GM-CSF (Cytokines)): 5.51
- Fold Change (Cmpd. 4 relative to vehicle) ([5]; Gene ICAM1 (Adhesion)): 2.51
- Fold Change (Cmpd. 4 relative to vehicle) ([5]; Gene IL6 (Cytokines)): 3.61
- Fold Change (Cmpd. 4 relative to vehicle) ([5]; Gene IL11 (Cytokines)): 2.16
- Fold Change (Cmpd. 4 relative to vehicle) ([5]; Gene LIF (Cytokines)): 2.66
- Fold Change (Cmpd. 4 relative to vehicle) ([5]; Gene SELE (Adhesion)): 3.86
- Fold Change (Cmpd. 4 relative to vehicle) ([5]; Gene SELP (Adhesion)): 3.16
- Fold Change (Cmpd. 4 relative to vehicle) ([5]; Gene VEGF-c (Cytokines)): 2.10
- neutrophil recruitment to the site of HSV infection (neutrophil (Ly6G)): Recruitment/infiltration of neutrophils
- number of ZIKV infected cells (intracellular staining for ZIKV antigens) (Zika virus (ZIKV); 1 and 2 dpi): reduction
- number of ZIKV focus forming units (plaques) (Zika virus (ZIKV); [6]): significantly reduced
- size of ZIKV focus forming units (plaques) (Zika virus (ZIKV); [6]): significantly reduced
- requirement of pretreatment for suppression of ZIKV infection (Zika virus (ZIKV); pretreated vs treated 3 h post ZIKV adsorption): not essential
